Reference: patent publication US12281095B2, “Pesticidally active diazine-amide compounds” (SYNGENTA CROP PROTECTION AG, priority 2019, dated 2025)

Columns and labels:
Format in all cases: in vivo
[1] = system: Diabrotica balteata (Corn Root Worm); assay: Example B1: Diabrotica balteata (Corn Root Worm), sprayed maize sprouts; details: 96 h, application rate of 200 ppm, L2 larvae, 4 days after infestation, read-out: control in at least one of the two categories (mortality or growth inhibition)
Method: Example B1: Diabrotica balteata (Corn Root Worm)
Maize sprouts placed onto an agar layer in 24-well microtiter plates were treated with aqueous test solutions prepared from 10′000 ppm DMSO stock solutions by spraying. After drying, the plates were infested with L2 larvae (6 to 10 per well). The samples were assessed for mortality and growth inhibition in comparison to untreated samples 4 days after infestation.

[2] = system: Spodoptera littoralis (Egyptian Cotton Leaf Worm); assay: Example B9: Spodoptera littoralis (Egyptian Cotton Leaf Worm), sprayed cotton leaf discs; details: foliar, 72 h, application rate of 200 ppm, L1 larvae, 3 days after infestation, read-out: control in at least one of the three categories (mortality, anti-feedant or growth inhibition)
[3] = system: Plutella xylostella (Diamond Back Moth); assay: Example B5: Plutella xylostella (Diamond Back Moth), artificial diet, 24-well; details: 192 h, application rate of 200 ppm, eggs, 8 days after infestation, read-out: control in at least one of the two categories (mortality or growth inhibition)
Method: Example B5: Plutella xylostella (Diamond Back Moth)
24-well microtiter plates with artificial diet were treated with aqueous test solutions prepared from 10′000 ppm DMSO stock solutions by pipetting. After drying, Plutella eggs were pipetted through a plastic stencil onto a gel blotting paper and the plate was closed with it. The samples were assessed for mortality and growth inhibition in comparison to untreated samples 8 days after infestation.

[4] = system: Chilo suppressalis (Striped Rice Stemborer); assay: Example B4: Chilo suppressalis (Striped Rice Stemborer), artificial diet; details: 144 h, application rate of 200 ppm, L2 larvae, 6 days after infestation, read-out: control in at least one of the three categories (mortality, anti-feedant or growth inhibition)
Procedure, shortened: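 Artificial diet was treated with aqueous dilutions made from 10'000 ppm DMSO stocks, dried, then infested with L2 larvae at 6–8 per well. Mortality, antifeedant effect and growth inhibition were assessed against untreated samples 6 days after infestation.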

[5] = system: Myzus persicae (Green Peach Aphid); assay: Example B8: Myzus persicae (Green Peach Aphid): Intrinsic Activity; details: 120 h, test rate of 12 ppm, sucrose solution, 5 days after infestation
Source text: Example B8: Myzus persicae (Green Peach Aphid): Intrinsic Activity
Test compounds prepared from 10′000 ppm DMSO stock solutions were applied by pipette into 24-well microtiter plates and mixed with sucrose solution. The plates were closed with a stretched Parafilm. A plastic stencil with 24 holes was placed onto the plate and infested pea seedlings were placed directly on the Parafilm. The infested plate was closed with a gel blotting paper and another plastic stencil and then turned upside down. The samples were assessed for mortality 5 days after infestation.

[6] = system: Myzus persicae (Green Peach Aphid); assay: Example B6: Myzus persicae (Green Peach Aphid): Feeding/Contact Activity; details: 144 h, application rate of 200 ppm, aphid population of mixed ages, 6 days after infestation
Method: Example B6: Myzus persicae (Green Peach Aphid): Feeding/Contact Activity
Sunflower leaf discs were placed onto agar in a 24-well microtiter plate and sprayed with aqueous test solutions prepared from 10′000 ppm DMSO stock solutions. After drying, the leaf discs were infested with an aphid population of mixed ages. The samples were assessed for mortality 6 days after infestation.

[7] = system: Euschistus heros (Neotropical Brown Stink Bug); assay: Example B2: Euschistus heros (Neotropical Brown Stink Bug), sprayed soybean leaves; details: 120 h, application rate of 200 ppm, N2 nymphs, 5 days after infestation, read-out: control in at least one of the two categories (mortality or growth inhibition)
Method: Example B2: Euschistus heros (Neotropical Brown Stink Bug)
Soybean leaves on agar in 24-well microtiter plates were sprayed with aqueous test solutions prepared from 10′000 ppm DMSO stock solutions. After drying the leaves were infested with N2 nymphs. The samples were assessed for mortality and growth inhibition in comparison to untreated samples 5 days after infestation.

[8] = system: Frankliniella occidentalis (Western Flower Thrips); assay: Example B3: Frankliniella occidentalis (Western Flower Thrips): Feeding/Contact Activity; details: 168 h, application rate of 200 ppm, population of mixed ages, 7 days after infestation
Method: Example B3: Frankliniella occidentalis (Western Flower Thrips): Feeding/Contact Activity
Sunflower leaf discs were placed on agar in 24-well microtiter plates and sprayed with aqueous test solutions prepared from […] stock solutions. After drying the leaf discs were infested with a Frankliniella population of mixed ages. The samples were assessed for mortality 7 days after infestation.

[9] = system: Tetranychus urticae (Two-Spotted Spider Mite); assay: Example B11: Tetranychus urticae (Two-Spotted Spider Mite), sprayed bean leaf discs; details: foliar, 192 h
Method: Example B11: Tetranychus urticae (Two-Spotted Spider Mite)
Bean leaf discs on agar in 24-well microtiter plates were sprayed with aqueous test solutions prepared from 10′000 ppm DMSO stock solutions. After drying the leaf discs were infested with a mite population of mixed ages. The samples were assessed for mortality on mixed population (mobile stages) 8 days after infestation.

[10] = system: Plutella xylostella (Diamondback Moth); assay: Example B13: Plutella xylostella (Diamondback Moth), artificial diet, 96-well; details: 216 h, application rate of 500 ppm, eggs/L1 larvae, 9 days after infestation
Method: Example B13: Plutella xylostella (Diamondback Moth)
96-well microtiter plates containing artificial diet were treated with aqueous test solutions, prepared from 10′000 ppm DMSO stock solutions, by a liquid handling robot. After drying, eggs (˜30 per well) were infested onto a netted lid which was suspended above the diet. The eggs hatch and L1 larvae move down to the diet. The samples were assessed for mortality 9 days after infestation.

[11] = system: Spodoptera littoralis (Egyptian Cotton Leaf Worm); assay: Example B10: Spodoptera littoralis (Egyptian Cotton Leaf Worm), uptake by lettuce roots from agar; details: 144 h, test rate of 12.5 ppm, compound absorbed by lettuce roots, eggs, 6 days after infestation, read-out: control in at least one of the three categories (mortality, anti-feeding, or growth inhibition)
Source text: Example B10: Spodoptera littoralis (Egyptian Cotton Leaf Worm)
Test compounds were applied by pipette from 10′000 ppm DMSO stock solutions into 24-well plates and mixed with agar. Lettuce seeds were placed onto the agar and the multi well plate was closed by another plate which contained also agar. After 7 days the compound was absorbed by the roots and the lettuce grew into the lid plate. The lettuce leaves were then cut off into the lid plate. Spodoptera eggs were pipetted through a plastic stencil onto a humid gel blotting paper and the lid plate was closed with it. The samples were assessed for mortality, anti-feedant effect and growth inhibition in comparison to untreated samples 6 days after infestation.

[12] = system: Myzus persicae (Green Peach Aphid); assay: Example B12: Myzus persicae (Green Peach Aphid), 96-well sucrose solution; details: 120 h, application rate of 50 ppm, 5 days after infestation
Source text: Example B12: Myzus persicae (Green Peach Aphid)
Test compounds prepared from 10′000 ppm DMSO stock solutions were applied by a liquid handling robot into 96-well microtiter plates and mixed with a sucrose solution. Parafilm was stretched over the 96-well microtiter plate and a plastic stencil with 96 holes was placed onto the plate. Aphids were sieved into the wells directly onto the Parafilm. The infested plates were closed with a gel blotting card and a second plastic stencil and then turned upside down. The samples were assessed for mortality 5 days after infestation.

CC(NC(=O)c1cc(C(F)(F)F)cc(C2(C#N)CC2)c1)c1nccnc1-c1ncc(OCC(F)F)cn1 (centres unmarked) [P49, 3-(1-cyanocyclopropyl)-N-[1-[3-[5-(2,2-difluoroethoxy)pyrimidin-2-yl]pyrazin-2-yl]ethyl]-5-(trifluoromethyl)benzamide]
≥ 80%: percent control (mortality or growth inhibition) at 200 ppm [1] | percent control (mortality, anti-feedant effect or growth inhibition) at 200 ppm [2] | percent control (mortality or growth inhibition) at 200 ppm [3] | percent control (mortality, anti-feedant effect or growth inhibition) at 200 ppm [4] | mortality at 12 ppm [5] | mortality at 200 ppm [6] | percent control (mortality or growth inhibition) at 200 ppm [7]

CC(NC(=O)c1cc(OC(F)F)cc(C2(C#N)CC2)c1)c1nccnc1-c1ccc(C#N)cn1 (centres unmarked) [P44, 3-(1-cyanocyclopropyl)-N-[1-[3-(5-cyano-2-pyridyl)pyrazin-2-yl]ethyl]-5-(difluorometh-oxy)benzamide]
≥ 80%: percent control (mortality or growth inhibition) at 200 ppm [1] | percent control (mortality, anti-feedant effect or growth inhibition) at 200 ppm [2] | mortality at 200 ppm [8] | percent control (mortality or growth inhibition) at 200 ppm [3] | percent control (mortality, anti-feedant effect or growth inhibition) at 200 ppm [4] | mortality at 12 ppm [5]

CC(NC(=O)c1cc(C(F)(F)F)nc(C2(C#N)CC2)c1)c1nccnc1-c1ccc(OCC(F)F)cn1 (centres unmarked) [P22, 2-(1-cyanocyclopropyl)-N-[1-[3-[5-(2,2-difluoroethoxy)-2-pyridyl]pyrazin-2-yl]ethyl]-6-(trifluoromethyl)pyridine-4-carboxamide]
≥ 80%: mortality at 200 ppm [9] | percent control (mortality or growth inhibition) at 200 ppm [1] | percent control (mortality, anti-feedant effect or growth inhibition) at 200 ppm [2] | percent control (mortality or growth inhibition) at 200 ppm [3] | percent control (mortality, anti-feedant effect or growth inhibition) at 200 ppm [4] | mortality at 500 ppm [10]

CC(NC(=O)c1cc(C(F)(F)F)cc(C(C)(C)C#N)c1)c1nccnc1-c1ncc(OCC(F)F)cn1 (centres unmarked) [P48, 3-(1-cyano-1-methyl-ethyl)-N-[1-[3-[5-(2,2-difluoroeth-oxy)pyrimidin-2-yl]pyrazin-2-yl]ethyl]-5-(trifluoro-methyl)benzamide]
≥ 80%: percent control (mortality or growth inhibition) at 200 ppm [1] | percent control (mortality, anti-feedant effect or growth inhibition) at 200 ppm [2] | mortality at 200 ppm [8] | percent control (mortality or growth inhibition) at 200 ppm [3] | percent control (mortality, anti-feedant effect or growth inhibition) at 200 ppm [4] | mortality at 12 ppm [5] | percent control (mortality or growth inhibition) at 200 ppm [7]

CC(NC(=O)c1cc(C(F)(F)F)cc(C2(C#N)CC2)c1)c1nccnc1-c1ncc(OC(F)F)cn1 (centres unmarked) [P32, 3-(1-cyanocyclopropyl)-N-[1-[3-[5-(difluoromethoxy)pyrimidin-2-yl]pyrazin-2-yl]ethyl]-5-(trifluoromethyl)benzamide]
≥ 80%: percent control (mortality, anti-feeding or growth inhibition) at 12.5 ppm [11] | percent control (mortality or growth inhibition) at 200 ppm [1] | percent control (mortality, anti-feedant effect or growth inhibition) at 200 ppm [2] | mortality at 50 ppm [12] | percent control (mortality or growth inhibition) at 200 ppm [3] | percent control (mortality, anti-feedant effect or growth inhibition) at 200 ppm [4] | mortality at 12 ppm [5] | percent control (mortality or growth inhibition) at 200 ppm [7] | mortality at 500 ppm [10]

CC(NC(=O)c1cc(C(F)(F)F)nc(C2(C#N)CC2)c1)c1nccnc1-c1ncc(OCC(F)(F)F)cn1 (centres unmarked) [P34, 2-(1-cyanocyclopropyl)-N-[1-[3-[5-(2,2,2-trifluoroethoxy)pyrimidin-2-yl]pyrazin-2-yl]ethyl]-6-(trifluoromethyl)pyridine-4-carboxamide]
≥ 80%: percent control (mortality, anti-feeding or growth inhibition) at 12.5 ppm [11] | percent control (mortality or growth inhibition) at 200 ppm [1] | percent control (mortality, anti-feedant effect or growth inhibition) at 200 ppm [2] | mortality at 50 ppm [12] | percent control (mortality or growth inhibition) at 200 ppm [3] | percent control (mortality, anti-feedant effect or growth inhibition) at 200 ppm [4] | mortality at 12 ppm [5] | percent control (mortality or growth inhibition) at 200 ppm [7] | mortality at 500 ppm [10]
